Results: publication PMC8808565 (iScience, 2022)
Entries after “also recorded” stand apart in the source; their conditions may differ. No end group written: not given here.

How the values were obtained:
[1] = cationic, 41 amino acids; ref Sawai et al., 2001; cited from earlier work
His-tagged rRBD = format: binding, SARS-CoV-2
[2] = system: CoV-2 spike-pseudotyped virus infection of ACE2-expressing HEK 293T cells; format: cell-based, SARS-CoV-2 (spike pseudotyped lentivirus); human cells
[3] = ref Koeninger et al., 2020; cited from earlier work
[4] = system: various viruses, including coronaviruses; details: ref Kim et al., 2018; cited from earlier work
RBD:ACE2 binding = format: cell-based, SARS-CoV-2 RBD; human ACE2
[5] = system: VSVG-pseudotyped virus infection of ACE2-expressing HEK 293T cells; format: cell-based
[6] = target: recombinant SARS-CoV-2 spike receptor-binding domain (rRBD); assay: Surface plasmon resonance; details: read-out: KD (abstract, rounded)
RBD = details: bilayer interferometry; ref Wang et al., 2021a; cited from earlier work

Substance | charge [1] | co-precipitation with His-RBD (in words) (His-tagged rRBD) | ratio of hemolytic concentration to IC50 (Hemolytic activity) | effect on CoV-2 spike-mediated infection (in words) [2] | concentration at which hemolytic activity begins [3] | antiviral effect (in words) [4] | effect on RBD:ACE2 binding (in words) (RBD:ACE2 binding) | inhibition of VSVG-pseudotyped virus infection (in words) [5] | Kd [6] | binding interaction with RBD (in words) (RBD)
GIGDPVTCLKSGAICHPVFCPRRYKQIGTCGLPGTKCCKKP (disulfide (positions not given here)) [hBD-2, Human beta defensin 2] | +6 | significant binding of hBD-2 to His-RBD | 25 times | dose-dependently decreased entry of CoV-2 spike-mediated infection; also recorded: inhibited viral entry into ACE2-expressing HEK 293T cells in a dose-dependent manner | 70 µM | interrupt viral infection of various viruses, including coronaviruses | preventing it from binding to ACE2-expressing cells; also recorded: competitively decreased RBD-ACE2 binding; also recorded: reduced RBD:ACE2 binding; also recorded: blocks spike-RBD:ACE2 binding | not VSVG-mediated infection; also recorded: no inhibition | ~2000 nM | 
LL-37 |  |  |  |  |  |  |  |  |  | strong binding interaction
